According to patent US20010031268A1, “Antigen preparations” (priority 1999, published 2001):

Assays:
[1] = tested on: Neisseria meningitidis strain B16B6; assay: Growth of Neisseria meningitidis culture (optical density at 600 nm) with and without norepinephrine bitartrate; type: cell-based; conditions: 100 micromolar added at 20 hours post-inoculation; MEM with NEAA, Vitox (iron) and ABS (iron chelator); OD 600 nm until 30 hours
Method: A culture of Neisseria meningitidis strain B16B6 (obtainable from the National Collection of Type Cultures, PHLS, Colindale, London, UK) was grown overnight at 37 deg C. on a GC agar plate (Oxoid) containing 2% Vitox (Oxoid). Vitox is a defined growth supplement suitable for enrichment of culture media and contains, amongst other ingredients, a source of iron.
At the end of incubation, about 20 bacterial colonies were harvested from the GC agar plate and suspended in 100 microliters of sterile phosphate-buffered saline (PBS; Gibco). The resulting bacterial suspension was then grown at 37 deg C for 4 hours on a GC agar plate containing 2% Vitox. At the end of incubation, the agar plate was flooded with 2 ml of sterile PBS and the bacterial suspension transferred into a sterile container. Optical density of the suspension was then determined at 600 nm. An optical density at 600 nm of 0.1 is equivalent to about 2×10^8 cfu/ml of Neisseria meningitidis. […]
The test medium was incubated at 37 deg C. with shaking at 180 rpm. The optical density of the culture was measured at 600 nm at 2, 4 and 20 hours post-inoculation of the media.
At 20 hours post-inoculation, the test sample was divided into halves. […] Both half-samples were then further incubated at 37 deg C., and optical density at 600 nm measured every 2 hours until 30 hours post-inoculation. […]

Neisseria meningitidis = assay: SDS-PAGE protein analysis of bacteria grown with and without norepinephrine bitartrate; type: cell-based
Text: Samples of “test” bacteria grown as described above in MEM containing NEAA, iron chelator (ABS) and iron (Vitox) both in the presence and absence of norepinephrine bitartrate were taken. The samples were centrifuged to pellet bacteria. The bacterial pellets obtained were resuspended in 50 microliters of TE buffer (Sambrook et al: 1989, Molecular cloning: A Laboratory Manual, Cold Spring Harbour Laboratory Press, N.Y.) and 200 microliters of SDS-PAGE solubilisation buffer added (Sambrook et al: as above). The mixture was then heated at 70 deg C to solubilize proteins. Samples and appropriate molecular weight markers were then run on 10% and 12% SDS-polyacrylamide gels. The gels were then stained with Coomassie blue stain, according to a standard method, and protein bands observed.
Culture was carried out in MEM medium containing NEAA, iron (Vitox) and an iron chelator (ABS), either with norepinephrine bitartrate added to the culture (lane 1), or without norepinephrine bitartrate (lane 2). Molecular weight markers (kD) are also shown (lane M).

E. coli = conditions: low inoculum levels (50-1000 bacterial cells/ml)
Neisseria = conditions: no catechol inducer

NC[C@H](O)c1ccc(O)c(O)c1 [norepinephrine bitartrate]
growth of a culture of Neisseria meningitidis [1]: accelerated growth | newly expressed or overexpressed further proteins (SDS-PAGE) (Neisseria meningitidis; compared with bacteria cultured without norepinephrine): newly expressed or overexpressed further proteins with molecular weights of about 250 kDa, about 80 kDa, and about 28 kDa | proteins expressed only when grown in the presence of the inducer (SDS-PAGE, Coomassie) (Neisseria meningitidis; compared with bacteria grown in the absence of norepinephrine bitartrate, MEM with NEAA, Vitox, ABS): expressed proteins, including proteins with molecular weights of about 100 KDa and about 55 KDa | over-expression of protein in comparison to bacteria grown without the inducer (SDS-PAGE) (Neisseria meningitidis; compared with bacteria grown without norepinephrine bitartrate): over-expression of an approximately 20 KDa protein

O=C(O)C(NCCNC(C(=O)O)c1ccccc1O)c1ccccc1O (stereo not drawn) [EDDA, ethylene diamine di-ortho-hydroxyphenyl-acetic acid]
growth of E. coli under low iron conditions and low inoculum levels (E. coli): nor to a lesser extent do they allow good growth | growth of Neisseria under low-iron conditions (Neisseria): do not reliably allow good growth
